Laboratory results taken from US20090177280A1, “Implant With Multiple Coating” (priority 2005, published 2009).
Entries after “also recorded” stand apart in the source; their conditions may differ.

Test: Release of rapamycin from spray-coated microporous stents (UV spectroscopy at 280 nm)
Format: physicochemical
Conditions: for effect of second drug on rapamycin release from the stent platform: 0.5% and 1.0% 17β estradiol valerate added to 1% rapamycin solution in ethanol
Description: Microporous stents are spray-coated by means of a unique stent-coating machine (Wessely et al, supra). Attachment of a drug-reservoir is required to supply one or multiple drugs of choice. Besides sirolimus (rapamycin) we included a second drug at different concentrations to examine whether release kinetics of the primary compound (e.g. sirolimus) could be altered. Released rapamycin from the stent platform were measured at distinctive time points as previously described (Wessely, supra) by means of UV spectroscopy at a wave length of 280 nm.
The experiment was carried out as Example 1 with the exception that 17β estradiol was used as second drug.
The experiment was carried out as Example 1 with the exception that rosiglitazone was used as second drug.
The experiment was carried out as Example 1 with the exception that probucol was used as second drug.

CCCCC(=O)O[C@H]1CC[C@H]2[C@@H]3CCc4cc(O)ccc4[C@H]3CC[C@]12C [17β estradiol valerate]
effect of second drug on rapamycin release from the stent platform (0.1%): substantially modulate rapamycin release | effect of second drug on rapamycin release from the stent platform (0.1%, listed as estradiolvalerat): retardation

COc1ccccc1OCCNCC(O)COc1cccc2[nH]c3ccccc3c12 (stereo not shown) [carvedilol]
effect of second drug on stent-based rapamycin release (multiplex coating with rapamycin (1%) and carvedilol (0.5%) in ethanol vs single coated rapamycin (1%)): clear retardation

CC(C)(Sc1cc(C(C)(C)C)c(O)c(C(C)(C)C)c1)Sc1cc(C(C)(C)C)c(O)c(C(C)(C)C)c1 [probucol, 4,4′-(isopropylidenedithio) bis(2,6-di-tert-butyl-phenol)]
effect of second drug on release of rapamycin from the stent (0.1%, 0.5% and 1.0% probucol added to 4% rapamycin solution in ethanol, polymer-free): protracts the release of rapamycin; also recorded: modifiable
